ChEMBL document CHEMBL1201862, “PubChem BioAssay data set” (2004)
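Step 1: Grow cells in 96-well plates. Step 2: Expose to compound for 48 hours at 5 concentrations. Step 3: Interpolate endpoints linearly; if unreached, use highest concentration. GI50 is the concentration that inhibits growth by half.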 Calls of active or inactive are those of the source. Cut-off read from the data, not from the text of the source: active = GI50 up to about 1.1 µM and inactive = higher.

Experiments:
Assay in all cases: inhibition of tumour cell growth, NCI panel, 48 h
HL-60 = tested on: HL-60
SK-OV-3 = tested on: SK-OV-3
LOX IMVI = tested on: LOX IMVI
M14 = tested on: M14
SF-539 = tested on: SF-539
DLD-1 = tested on: DLD-1
OVCAR-3 = tested on: OVCAR-3
HOP-92 = tested on: HOP-92
UACC-62 = tested on: UACC-62
Malme-3M = tested on: Malme-3M
SK-MEL-28 = tested on: SK-MEL-28
CCRF-CEM = tested on: CCRF-CEM
SN12C = tested on: SN12C
KM-20L2 = tested on: KM-20L2
NCI-H522 = tested on: NCI-H522
OVCAR-8 = tested on: OVCAR-8
NCI-H23 = tested on: NCI-H23
NCI-H460 = tested on: NCI-H460
SNB-19 = tested on: SNB-19
SNB-78 = tested on: SNB-78
NCI-H226 = tested on: NCI-H226
SK-MEL-5 = tested on: SK-MEL-5
SF-295 = tested on: SF-295
IGROV-1 = tested on: IGROV-1
RXF 631 = tested on: RXF 631
DMS-114 = tested on: DMS-114
TK-10 = tested on: TK-10
UO-31 = tested on: UO-31
CAKI-1 = tested on: CAKI-1
M19-MEL = tested on: M19-MEL
HT-29 = tested on: HT-29
EKVX = tested on: EKVX
LXFL 529 = tested on: LXFL 529
A498 = tested on: A498
XF498 = tested on: XF498
ACHN = tested on: ACHN
SF-268 = tested on: SF-268
HCT-15 = tested on: HCT-15
COLO 205 = tested on: COLO 205
RPMI-8226 = tested on: RPMI-8226
SK-MEL-2 = tested on: SK-MEL-2
DMS-273 = tested on: DMS-273
HCT-116 = tested on: HCT-116
K562 = tested on: K562
HOP-18 = tested on: HOP-18
U-251 = tested on: U-251
SW-620 = tested on: SW-620
786-0 = tested on: 786-0
HOP-62 = tested on: HOP-62
OVCAR-5 = tested on: OVCAR-5
SNB-75 = tested on: SNB-75
MOLT-4 = tested on: MOLT-4
HCC 2998 = tested on: HCC 2998
A549 = tested on: A549
SR = tested on: SR
KM12 = tested on: KM12
OVCAR-4 = tested on: OVCAR-4
RXF 393 = tested on: RXF 393
UACC-257 = tested on: UACC-257

For `CCOc1ccc(/C(C=O)=C(\Cl)c2ccc(OC)c(OC)c2)cc1`, the GI50 (HL-60) was 11.4 µM (inactive), the GI50 (SK-OV-3) was > 100 µM (inactive) and the GI50 (LOX IMVI) was > 100 µM (inactive). For the same molecule, the GI50 (M14) was > 100 µM (inactive), the GI50 (SF-539) was 83.2 µM (inactive) and the GI50 (DLD-1) was > 100 µM (inactive). The GI50 (OVCAR-3) was > 100 µM (inactive), the GI50 (HOP-92) was > 100 µM (inactive) and the GI50 (UACC-62) was 68.9 µM (inactive). The GI50 (Malme-3M) was > 100 µM (inactive), the GI50 (SK-MEL-28) was > 100 µM (inactive) and the GI50 (CCRF-CEM) was > 100 µM (inactive). The GI50 (SN12C) was > 100 µM (inactive), the GI50 (KM-20L2) was > 100 µM (inactive) and the GI50 (NCI-H522) was > 100 µM (inactive). The GI50 (OVCAR-8) was > 100 µM (inactive), the GI50 (NCI-H23) was > 100 µM (inactive) and the GI50 (NCI-H460) was > 100 µM (inactive). The GI50 (SNB-19) was > 100 µM (inactive), the GI50 (SNB-78) was > 100 µM (inactive) and the GI50 (NCI-H226) was > 100 µM (inactive). For the same molecule, the GI50 (SK-MEL-5) was 77.3 µM (inactive), the GI50 (SF-295) was 79.6 µM (inactive) and the GI50 (IGROV-1) was > 100 µM (inactive). For the same molecule, the GI50 (RXF 631) was > 100 µM (inactive), the GI50 (DMS-114) was > 100 µM (inactive) and the GI50 (TK-10) was > 100 µM (inactive). The GI50 (UO-31) was > 100 µM (inactive), the GI50 (CAKI-1) was > 100 µM (inactive) and the GI50 (M19-MEL) was > 100 µM (inactive). The GI50 (HT-29) was > 100 µM (inactive), the GI50 (EKVX) was > 100 µM (inactive) and the GI50 (LXFL 529) was > 100 µM (inactive). The GI50 (A498) was > 100 µM (inactive), the GI50 (XF498) was 45.2 µM (inactive) and the GI50 (ACHN) was > 100 µM (inactive). The GI50 (SF-268) was 42.6 µM (inactive), the GI50 (HCT-15) was over 100 µM and the GI50 (COLO 205) was > 100 µM (inactive). For the same molecule, the GI50 (RPMI-8226) was > 100 µM (inactive), the GI50 (SK-MEL-2) was > 100 µM (inactive) and the GI50 (DMS-273) was > 100 µM (inactive). The GI50 (HCT-116) was > 100 µM (inactive), the GI50 (K562) was > 100 µM (inactive) and the GI50 (HOP-18) was > 100 µM (inactive). For the same molecule, the GI50 (U-251) was > 100 µM (inactive) and the GI50 (SW-620) was > 100 µM (inactive).

`O=C(c1ccccc1)[C@H]1Nc2ccc(Cl)cc2[C@H]2CCC[C@@H]12` was tested, and the GI50 (786-0) was 44.9 µM (inactive), the GI50 (HOP-62) was > 100 µM (inactive) and the GI50 (LOX IMVI) was 6.85 µM (inactive). For the same molecule, the GI50 (OVCAR-5) was 23.7 µM (inactive), the GI50 (M14) was 11.7 µM (inactive) and the GI50 (SF-539) was 33.2 µM (inactive). The GI50 (DLD-1) was 21.8 µM (inactive), the GI50 (OVCAR-3) was 27.2 µM (inactive) and the GI50 (UACC-62) was 25.8 µM (inactive). For the same molecule, the GI50 (Malme-3M) was 22 µM (inactive), the GI50 (SK-MEL-28) was 19.4 µM (inactive) and the GI50 (SN12C) was 14.6 µM (inactive). The GI50 (KM-20L2) was 26.9 µM (inactive), the GI50 (NCI-H522) was 23.3 µM (inactive) and the GI50 (OVCAR-8) was 23.3 µM (inactive). For the same molecule, the GI50 (SNB-75) was 21.7 µM (inactive), the GI50 (NCI-H23) was 23.9 µM (inactive) and the GI50 (NCI-H460) was 24.5 µM (inactive). The GI50 (SNB-19) was > 100 µM (inactive), the GI50 (SNB-78) was 51.3 µM (inactive) and the GI50 (NCI-H226) was 13.6 µM (inactive). The GI50 (SK-MEL-5) was 10.3 µM (inactive), the GI50 (SF-295) was 32.1 µM (inactive) and the GI50 (IGROV-1) was > 100 µM (inactive). The GI50 (RXF 631) was 36.1 µM (inactive), the GI50 (DMS-114) was 23.6 µM (inactive) and the GI50 (MOLT-4) was 5.7 µM (inactive). For the same molecule, the GI50 (TK-10) was 30.6 µM (inactive), the GI50 (UO-31) was 17.8 µM (inactive) and the GI50 (CAKI-1) was 59.8 µM (inactive). For the same molecule, the GI50 (M19-MEL) was 27.6 µM (inactive), the GI50 (HT-29) was 21 µM (inactive) and the GI50 (LXFL 529) was 17.9 µM (inactive). The GI50 (HCC 2998) was 30.5 µM (inactive), the GI50 (A549) was 42 µM (inactive) and the GI50 (XF498) was 17.1 µM (inactive). For the same molecule, the GI50 (ACHN) was 13.3 µM (inactive), the GI50 (SF-268) was 31.7 µM (inactive) and the GI50 (HCT-15) was 25.1 µM. For the same molecule, the GI50 (COLO 205) was 25.1 µM (inactive), the GI50 (RPMI-8226) was 11.9 µM (inactive) and the GI50 (SK-MEL-2) was 19.7 µM (inactive). For the same molecule, the GI50 (SR) was 7.21 µM (inactive), the GI50 (DMS-273) was 36.1 µM (inactive) and the GI50 (KM12) was 49.1 µM (inactive). For the same molecule, the GI50 (OVCAR-4) was 26.2 µM (inactive), the GI50 (HCT-116) was 13.2 µM (inactive) and the GI50 (K562) was 15.4 µM (inactive). For the same molecule, the GI50 (HOP-18) was 12.3 µM (inactive), the GI50 (U-251) was 35.6 µM (inactive) and the GI50 (SW-620) was 27.9 µM (inactive). For the same molecule, the GI50 (RXF 393) was 14.8 µM (inactive).

`O=C1CCC2(c3ccc(Cl)cc3)Nc3cc(Cl)ccc3N12` (stereo not given) was tested, and the GI50 (HL-60) was 1.15 µM (inactive), the GI50 (SK-OV-3) was 17.6 µM (inactive) and the GI50 (786-0) was 10.2 µM (inactive). For the same molecule, the GI50 (HOP-62) was 15.5 µM (inactive), the GI50 (LOX IMVI) was 12.1 µM (inactive) and the GI50 (M14) was 15.2 µM (inactive). The GI50 (SF-539) was 2.3 µM (inactive), the GI50 (DLD-1) was 5.75 µM (inactive) and the GI50 (OVCAR-3) was 10.4 µM (inactive). The GI50 (UACC-62) was 8.97 µM (inactive), the GI50 (Malme-3M) was 10.7 µM (inactive) and the GI50 (SK-MEL-28) was 12.4 µM (inactive). For the same molecule, the GI50 (CCRF-CEM) was 2.42 µM (inactive), the GI50 (SN12C) was 15.3 µM (inactive) and the GI50 (KM-20L2) was 15.2 µM (inactive). For the same molecule, the GI50 (NCI-H522) was 10.2 µM (inactive), the GI50 (OVCAR-8) was 7.76 µM (inactive) and the GI50 (SNB-75) was 12.2 µM (inactive). For the same molecule, the GI50 (NCI-H23) was 10.9 µM (inactive), the GI50 (UACC-257) was 13.6 µM (inactive) and the GI50 (SNB-19) was 16.4 µM (inactive). For the same molecule, the GI50 (SNB-78) was 15.3 µM (inactive), the GI50 (SK-MEL-5) was 12.4 µM (inactive) and the GI50 (SF-295) was 9.04 µM (inactive). The GI50 (IGROV-1) was 13.6 µM (inactive), the GI50 (RXF 631) was 14.7 µM (inactive) and the GI50 (DMS-114) was 7.4 µM (inactive). For the same molecule, the GI50 (UO-31) was 15.6 µM (inactive), the GI50 (M19-MEL) was 12.8 µM (inactive) and the GI50 (HT-29) was 12.4 µM (inactive). The GI50 (EKVX) was 15 µM (inactive), the GI50 (LXFL 529) was 10.8 µM (inactive) and the GI50 (A498) was 12.1 µM (inactive). For the same molecule, the GI50 (A549) was 11.5 µM (inactive), the GI50 (XF498) was 2.31 µM (inactive) and the GI50 (ACHN) was 10.4 µM (inactive). The GI50 (SF-268) was 12.4 µM (inactive), the GI50 (HCT-15) was 12.2 µM and the GI50 (COLO 205) was 4.7 µM (inactive). For the same molecule, the GI50 (RPMI-8226) was 16.4 µM (inactive), the GI50 (SK-MEL-2) was 11.4 µM (inactive) and the GI50 (SR) was 5.9 µM (inactive). For the same molecule, the GI50 (DMS-273) was 10.4 µM (inactive), the GI50 (KM12) was 12 µM (inactive) and the GI50 (OVCAR-4) was 10.6 µM (inactive). For the same molecule, the GI50 (HCT-116) was 7.06 µM (inactive), the GI50 (K562) was 2.31 µM (inactive) and the GI50 (HOP-18) was 1.25 µM (inactive). For the same molecule, the GI50 (U-251) was 11.7 µM (inactive), the GI50 (SW-620) was 6.14 µM (inactive) and the GI50 (RXF 393) was 11.9 µM (inactive).
